Test results: patent publication US20040058983A1, “Plan-derived and synthetic phenolic compounds and plant extracts, effective in the treatment and prevention of chlamydial infections” (priority 2000, published 2004)
Like-named read-outs stand apart in the source and are kept apart here.

Legend:
[1] = system: Ca^2+ intake in the cell; test: Effect of the compounds on the calcium influx (Ca2+ intake) to the cell; type: cell-based; details: compound 20 μg/ml; − = decrease, + = increase
Excerpt: (§1) In the following Table I some of the preferred plant-derived phenolic compounds according to the present invention, the effect of the compounds on the calcium influx to the cell, the antioxidant effect as well as the chemical structure of the compounds are presented.

[2] = system: C. trachomatis; test: Direct anti-chlamydial effect on C. trachomatis, cultivation in McCoy cells; type: cell-based; details: for Effect on C. trachomatis (in words): pretreated host cells; for inhibition at 0.5 µM / inhibition at 50 µM: Chlamydia trachomatis
Procedure: C. trachomatis, cultivation in McCoy cells. The test procedure otherwise the same as with C. pneumoniae.
(§2) As the host cell of C. pneumoniae in in vitro conditions HL cells are used. As the host cells of C. trachomatis in in vitro conditions McCoy cells often are used.
(§3) On the day preceding the infection the host cells are inoculated on a 24-well plate: the cells are harvested by trypsinisation, they are suspended in ca. 5 ml of the nutrition liquid and counted in a Burker's chamber. Each well are seeded using a concentration of 250000-400000 cells/well for cultivation. Before the addition of the cells to the well is if necessary round cover glass (diameter 13 mm) put for staining. Nutrition liquid is added so that the volume is 1 ml/well. On the following day the cells are infected with the desired bacterium.
(§4) Solution to be used in the infection and containing chlamydiae particles is mixed throughout. The old nutrition liquid is aspirated away. By the infection the inoculum which has been stored at −70° C. is diluted to an IFU concentration of ca. 10^3 so that the volume of the solution is at least 200 μl/well on a 24-well plate. The cells are infected by centrifuging at 1600 rpm (550×g)/1 hr. The nutrition medium is aspirated away and changed to a maintenance medium containing cyclohexamide and also containing the studied compound (DMSO concentration 0.2%), 1 ml/well. The cells are incubated in a 5% CO2 atmosphere at +35° C. The cells infected with C. pneumoniae are incubated for 3 days. After 2-3 days the maintenance medium is removed and the cells washed with 1×1 ml of PBS. To the wells 200 μl of SPG are added for further infection, harvested with a pipette tip and transferred into tubes. This is used for infecting new cells in the same way as above to test the inhibition of infectivity (chlamydiasidic effect).
(§5) The nutrition medium, which is above the cover glass left for staining, is aspirated away. The infected cells are fixed on the cover glass with methanol for 10 min. The cover glass is removed from the well and -transferred onto a suitable fluorescein-conjugated monoclonal antibody on Parafilm in a moist chamber with the cell-containing side down. The cover glass is incubated for 30 min at +37° C. and washed twice with PBS and once with water. Finally it is dried. The cover glass is put with the cell-containing side down on an object glass containing a fixative (e.g. Mounting medium). When viewed under the fluorescent microscope, cell culture specimens infacted with chlamydiae show a characteristic apple-green fluorescence of inclusions against a red counterstained background.

[3] = system: C. pneumoniae; test: Direct anti-chlamydial effect of compounds and mixtures on C. pneumoniae (Example 5); type: cell-based; details: 50 μM; for inhibition at 50 µM: Chlamydia pneumoniae, read-out: Inhibition %
Procedure: Direct Anti-Chlamydial Effect of Plant-Derived Phenolic Compounds, Certain Synthetic Compounds and Mixtures on C. pneumoniae
The concentration used was 50 μM.
(§6) The cultivated HL cells are infected with C. pneumoniae EB's. The EB's which have invaded the cell are changed into the metabolically active reticulate body (RB) which are dividing by binary fission in the endosome vacuole or inclusion.
(§7) After a certain time (about 72 hr) the C. pneumoniae RB's are condensing back into EB's, after which the inclusions are broken, the host cells are broken and the EB's are liberated. In this method the intention is to verify the inclusions before the breaking up of the host cells.
as §3, §4, §5

[4] = system: C. pneumoniae; test: Inhibition of the infectivity (chlamydiasidic effect), re-infection of new cells; type: cell-based; details: for inhibition at 0.5 µM / inhibition at 50 µM: Chlamydia pneumoniae
Procedure: Inhibition of the Infectivity/C. pneumoniae
as §4, §5

[5] = system: C. pneumoniae K7 strain (clinical isolate); test: Direct anti-chlamydial effect (inhibition of formation of inclusions), HL host cells; type: cell-based; details: for Inhibition of the growth of C. pneumoniae (in words): concentration of 0.5-50 μg; for inhibition at 0.5 µM / inhibition at 50 µM: Chlamydia pneumoniae, read-out: Inhibition % of the DMSO control
Excerpt: The Direct Anti-Chlamydial Effect of Plant-Derived Phenolic Compounds (As Inhibition of Formation of Inclusions)/C. pneumoniae K7 Strain (Clinical Isolate)
as §6, §7, §2, §3, §4, §5

[6] = system: HL cells; test: Toxicity towards the host cells, Trypan blue staining, no infection; type: cell-based, human
Procedure: The determination was performed as in the previous tests but without any infection. The viability was determined with Trypan blue staining.

[7] = Antioxidant effect, IC50 against DPPH; type: biochemical; details: read-out: IC50 [moles L^−1] against DPPH′
Excerpt: as §1

[8] = system: C. pneumoniae K7 strain (clinical isolate); test: Direct anti-chlamydial effect (inhibition of formation of inclusions), HL host cells; type: cell-based; details: for inhibition at 0.5 µM / inhibition at 50 µM: Chlamydia pneumoniae, read-out: Inhibition % of the DMSO control (pre-treated)
[9] = 0.5 μM, McCoy cells pre-treated 1 day
[10] = 50 μM, McCoy cells pre-treated 1 day
[11] = 0.5 μM, host cells pre-treated 1 day
[12] = 50 μM, host cells pre-treated 1 day
[13] = 0.5 μM, formation of inclusions
[14] = 0.5 μM, host cells incubated 1 day with compound before infection
[15] = 50 μM, host cells incubated 1 day with compound before infection
[16] = 0.5 μM, McCoy cells pre-treated 1 day, read-out: Inhibition % of the DMSO control (pre-treated)
[17] = 0.5 μM, McCoy cells, read-out: Inhibition % of the DMSO control
[18] = 50 μM, McCoy cells pre-treated 1 day, read-out: Inhibition % of the DMSO control (pre-treated)
[19] = 50 μM, McCoy cells, read-out: Inhibition % of the DMSO control
[20] = 0.5 μM, host cells pre-treated 1 day, read-out: Inhibition % of the DMSO control (pre-treated)
[21] = 0.5 μM, read-out: Inhibition % of the DMSO control
[22] = 50 μM, host cells pre-treated 1 day, read-out: Inhibition % of the DMSO control (pre-treated)
[23] = 50 μM, read-out: Inhibition % of the DMSO control

SMILES | Effect on Ca^2+ intake [%] [1] | Inhibition % of the DMSO control ([2]; 0.5 μM, McCoy cells) [%] | Inhibition % of the DMSO control (pre-treated) [2, 9] [%] | Inhibition % of the DMSO control ([2]; 50 μM, McCoy cells) [%] | Effect on C. trachomatis (in words) [2] | Inhibition % [3] [%] | Inhibition of the growth of C. pneumoniae (in words) [5] | Toxicity test HL-C ([6]; 0.005 μM) [%] | Toxicity test HL-C (pre-treated) ([6]; 0.005 μM) [%] | Toxicity test HL-C ([6]; 0.05 μM) [%] | Toxicity test HL-C (pre-treated) ([6]; 0.05 μM) [%] | Toxicity test HL-C ([6]; 0.5 μM) [%] | Toxicity test HL-C (pre-treated) ([6]; 0.5 μM) [%] | Toxicity test HL-C ([6]; 5 μM) [%] | Toxicity test HL-C (pre-treated) ([6]; 5 μM) [%] | Toxicity test HL-C ([6]; 50 μM) [%] | Toxicity test HL-C (pre-treated) ([6]; 50 μM) [%] | IC50 [7] [µM] | inhibition at 20 µg/mL [1] [%] | inhibition at 50 µM [3] [%] | further results
O=c1c(O)c(-c2ccc(O)cc2O)oc2cc(O)cc(O)c12 [Morin] | +48.0% | 0 | 100 | 0 | particularly effective | 100 | inhibited the growth | 8.3 | 14.4 | 9.0 | 8.1 | 8.4 | 6.4 | 8.3 | 12.7 | 11.2 | 9.7 | 23.9 | – | – | Inhibition % of the DMSO control (pre-treated) [2, 10]: 100%; Inhibition % of the DMSO control ([4]; 0.5 μM): 81%; Inhibition % of the DMSO control (pre-treated) [4, 11]: 53%; Inhibition % of the DMSO control ([4]; 50 μM): 94%; Inhibition % of the DMSO control (pre-treated) [4, 12]: 76%; Inhibition % of the DMSO control [5, 13]: 80%; Inhibition % of the DMSO control ([5]; 50 μM, formation of inclusions): 99%; Inhibition % of the DMSO control (pre-treated) [8, 14]: 62%; Inhibition % of the DMSO control (pre-treated) [8, 15]: 96%
CCCCCCCCOC(=O)c1cc(O)c(O)c(O)c1 [Octyl gallate] | – | – | – | – | – | – | inhibited the growth | 8.0 | 7.0 | 7.4 | 7.1 | 7.9 | 5.0 | 8.8 | 8.5 | 16.4 | 14.8 | 17 | 92.2 | 100 | inhibition at 0.5 µM [2, 16]: 0%; inhibition at 0.5 µM [2, 17]: 0%; inhibition at 50 µM [2, 18]: 88%; inhibition at 50 µM [2, 19]: 14%; inhibition at 0.5 µM [4, 20]: 42%; inhibition at 0.5 µM [4, 21]: 59%; inhibition at 50 µM [4, 22]: 100%; inhibition at 50 µM [4, 23]: 100%; inhibition at 0.5 µM [5]: 82%; inhibition at 50 µM [5]: 100%; inhibition at 0.5 µM [8]: 62%; inhibition at 50 µM [8]: 100%
O=c1c(O)c(-c2ccc(O)c(O)c2)oc2cc(O)cc(O)c12 [Quercetin] | – | – | – | – | particularly effective | – | inhibited the growth | 7.4 | 7.9 | 11.7 | 7.2 | 7.0 | 3.3 | 9.2 | 8.1 | 10.5 | 10.5 | 10.7 | -54.1 | 90 | inhibition at 0.5 µM [2, 16]: 20%; inhibition at 0.5 µM [2, 17]: 0%; inhibition at 50 µM [2, 18]: 100%; inhibition at 50 µM [2, 19]: 0%; inhibition at 0.5 µM [4, 20]: 0%; inhibition at 0.5 µM [4, 21]: 58%; inhibition at 50 µM [4, 22]: 0%; inhibition at 50 µM [4, 23]: 76%; inhibition at 0.5 µM [5, 13]: 68%; inhibition at 50 µM ([5]; 50 μM, formation of inclusions): 90%; inhibition at 0.5 µM [8, 14]: 77%; inhibition at 50 µM [8, 15]: 90%
COc1cc(O)c2c(=O)c(O)c(-c3ccc(O)c(O)c3)oc2c1 [Rhamnetin] | +6.63% | 0 | 17 | 0 | particularly effective | 100 | inhibited the growth | 10.9 | 6.6 | 9.5 | 7.6 | 10.0 | 10.6 | 9.6 | 8.0 | 15.7 | 16.9 | 12.1 | – | – | Inhibition % of the DMSO control (pre-treated) [2, 10]: 100%; Inhibition % of the DMSO control ([4]; 0.5 μM): 100%; Inhibition % of the DMSO control (pre-treated) [4, 11]: 75%; Inhibition % of the DMSO control ([4]; 50 μM): 100%; Inhibition % of the DMSO control (pre-treated) [4, 12]: 67%; Inhibition % of the DMSO control [5, 13]: 73%; Inhibition % of the DMSO control ([5]; 50 μM, formation of inclusions): 99%; Inhibition % of the DMSO control (pre-treated) [8, 14]: 50%; Inhibition % of the DMSO control (pre-treated) [8, 15]: 59%
C[C@@H]1O[C@@H](OC[C@H]2O[C@@H](Oc3c(-c4ccc(O)c(O)c4)oc4cc(O)cc(O)c4c3=O)[C@H](O)[C@@H](O)[C@@H]2O)[C@H](O)[C@H](O)[C@H]1O [Rutin] | −3.88% | – | – | – | – | 46 | – | – | – | – | – | – | – | – | – | – | – | 10.2 | – | – | –
COc1cc(C(=O)O)cc(OC)c1O [Syringic acid] | – | – | – | – | – | – | – | – | – | – | – | – | – | – | – | – | – | 32.6 | 10.9 | 32 | –
